Legend:
surinam grass = test: Test B pre/postemergence surinam grass; assay type: in vivo, Brachiaria decumbens
How it was run: (§1)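 Herbicidal effect was estimated by eye on a ten-point control scale after plants spent twelve to sixteen days in a greenhouse following soil or foliar treatment. Foliar sprays targeted plants at one to four leaves; all doses were formulated in a non-phytotoxic solvent with surfactant.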

wheat = test: Test B pre/postemergence wheat; assay type: in vivo, Triticum aestivum
How it was run: as §1

rape = test: Test B pre/postemergence rape; assay type: in vivo, Brassica napus
How it was run: as §1

pigweed = test: Test B pre/postemergence pigweed; assay type: in vivo, Amaranthus retroflexus
How it was run: as §1

duck salad = test: Test B flood test duck salad; assay type: in vivo, Heteranthera limosa
How it was run: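 Read-out is a visual response score from 0 (no effect) to 10 (complete control), assigned by comparison with untreated controls. Treatment was applied at the 2-leaf stage, and plants stayed in the greenhouse for twelve to sixteen days before scoring.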

corn = test: Test B pre/postemergence corn; assay type: in vivo, Zea mays
How it was run: as §1

crabgrass = test: Test B pre/postemergence crabgrass; assay type: in vivo, Digitaria sanguinalis
How it was run: as §1

bedstraw = test: Test B pre/postemergence bedstraw; assay type: in vivo, Galium aparine; conditions: for Bedstraw plant response rating: Postemergence; for Plant response rating, Bedstraw: Preemergence
How it was run: as §1

giant foxtail = test: Test B pre/postemergence giant foxtail; assay type: in vivo, Setaria faberii
How it was run: as §1

purple nutsedge = test: Test B pre/postemergence purple nutsedge; assay type: in vivo, Cyperus rotundus
How it was run: as §1

cocklebur = test: Test B pre/postemergence cocklebur; assay type: in vivo, Xanthium strumarium
How it was run: as §1

velvetleaf = test: Test B pre/postemergence velvetleaf; assay type: in vivo, Abutilon theophrasti
How it was run: as §1

soybean = test: Test B pre/postemergence soybean; assay type: in vivo, Glycine max
How it was run: as §1

sugar beet = test: Test B pre/postemergence sugar beet; assay type: in vivo, Beta vulgaris
How it was run: as §1

morningglory = test: Test B pre/postemergence morningglory; assay type: in vivo, Ipomoea hederacea
How it was run: as §1

[1] = Postemergence, Rate 62 g/ha, scale 0 to 10, 0 is no effect, 10 is complete control
[2] = Postemergence, Rate 250 g/ha, scale 0 to 10, 0 no effect, 10 complete control
[3] = Preemergence, Rate 62 g/ha, scale 0 to 10, 0 is no effect, 10 is complete control
[4] = Preemergence, Rate 125 g/ha, scale 0 to 10 (0 no effect, 10 complete control)
[5] = Preemergence, Rate 250 g/ha, scale of 0 to 10 where 0 is no effect and 10 is complete control
[6] = Preemergence, Rate 500 g/ha, scale 0 (no effect) to 10 (complete control)
[7] = Rate 125 g/ha, Postemergence, scale 0 to 10, 0 no effect, 10 complete control
[8] = Rate 500 g/ha, Postemergence, 0 to 10 scale (0 no effect, 10 complete control)
[9] = Rate 62 g/ha, scale 0 to 10, 0 is no effect, 10 is complete control

Cc1c(Cl)cccc1-n1c(=O)on(C(=O)N(c2ccc(F)cc2)C(C)C)c1=O [Compound 21]
B. signalgrass plant response rating (surinam grass; [1]): 0
B. signalgrass plant response rating (surinam grass; [2]): 0
Plant response rating, B. signalgrass (surinam grass; [3]): 0
Plant response rating, B. signalgrass (surinam grass; [4]): 0
Plant response rating, B. signalgrass (surinam grass; [5]): 0
B. signalgrass plant response rating (surinam grass; [6]): 0
B. signalgrass plant response rating (surinam grass; [7]): 0
B. signalgrass plant response rating (surinam grass; [8]): 0
Wheat plant response rating (wheat; [1]): 0
Wheat plant response rating (wheat; [2]): 0
Plant response rating, Wheat (wheat; [3]): 0
Plant response rating, Wheat (wheat; [4]): 0
Plant response rating, Wheat (wheat; [5]): 0
Wheat plant response rating (wheat; [6]): 0
Wheat plant response rating (wheat; [7]): 0
Rape plant response rating (rape; [1]): 0
Rape plant response rating (rape; [2]): 0
Plant response rating, Rape (rape; [3]): 0
Plant response rating, Rape (rape; [4]): 0
Plant response rating, Rape (rape; [5]): 0
Rape plant response rating (rape; [6]): 0
Rape plant response rating (rape; [7]): 0
Rape plant response rating (rape; [8]): 0
Redroot pigweed plant response rating (pigweed; [1]): 0
Redroot pigweed plant response rating (pigweed; [2]): 0
Plant response rating, Redroot pigweed (pigweed; [3]): 6
Plant response rating, Redroot pigweed (pigweed; [4]): 6
Plant response rating, Redroot pigweed (pigweed; [5]): 6
Redroot pigweed plant response rating (pigweed; [6]): 8
Redroot pigweed plant response rating (pigweed; [7]): 0
Redroot pigweed plant response rating (pigweed; [8]): 0
Ducksalad plant response rating (duck salad; [1]): 0
Ducksalad plant response rating (duck salad; Rate 125 g/ha, Postemergence section (flood test species), scale 0 to 10, 0 no effect, 10 complete control): 0
Ducksalad plant response rating (duck salad; Rate 500 g/ha, Postemergence section of Table B, 0 to 10 scale (0 no effect, 10 complete control)): 0
Ducksalad plant response rating (duck salad; flood test, listed under Postemergence, Rate 250 g/ha, scale 0 to 10, 0 no effect, 10 complete control): 0
Corn plant response rating (corn; [1]): 0
Corn plant response rating (corn; [2]): 0
Plant response rating, Corn (corn; [3]): 0
Plant response rating, Corn (corn; [4]): 0
Plant response rating, Corn (corn; [5]): 0
Corn plant response rating (corn; [6]): 0
Corn plant response rating (corn; [7]): 0
Corn plant response rating (corn; [8]): 3
Crabgrass plant response rating (crabgrass; [1]): 0
Crabgrass plant response rating (crabgrass; [2]): 0
Plant response rating, Crabgrass (crabgrass; [3]): 4
Plant response rating, Crabgrass (crabgrass; [4]): 7
Plant response rating, Crabgrass (crabgrass; [5]): 7
Crabgrass plant response rating (crabgrass; [6]): 7
Crabgrass plant response rating (crabgrass; [7]): 0
Crabgrass plant response rating (crabgrass; [8]): 2
Bedstraw plant response rating (bedstraw; [9]): 0
Bedstraw plant response rating (bedstraw; Rate 250 g/ha, scale 0 to 10, 0 no effect, 10 complete control): 0
Plant response rating, Bedstraw (bedstraw; [9]): 0
Plant response rating, Bedstraw (bedstraw; Rate 125 g/ha, scale 0 to 10 (0 no effect, 10 complete control)): 0
Plant response rating, Bedstraw (bedstraw; Rate 250 g/ha, scale of 0 to 10 where 0 is no effect and 10 is complete control): 0
Bedstraw plant response rating (bedstraw; Rate 125 g/ha, scale 0 to 10, 0 no effect, 10 complete control): 0
Bedstraw plant response rating (bedstraw; Rate 500 g/ha, 0 to 10 scale (0 no effect, 10 complete control)): 6
Giant foxtail plant response rating (giant foxtail; [1]): 0
Giant foxtail plant response rating (giant foxtail; [2]): 0
Plant response rating, Giant foxtail (giant foxtail; [3]): 8
Plant response rating, Giant foxtail (giant foxtail; [4]): 8
Plant response rating, Giant foxtail (giant foxtail; [5]): 8
Giant foxtail plant response rating (giant foxtail; [6]): 9
Giant foxtail plant response rating (giant foxtail; [7]): 0
Giant foxtail plant response rating (giant foxtail; [8]): 2
Nutsedge plant response rating (purple nutsedge; [1]): 0
Nutsedge plant response rating (purple nutsedge; [2]): 0
Plant response rating, Nutsedge (purple nutsedge; [3]): 0
Plant response rating, Nutsedge (purple nutsedge; [4]): 0
Plant response rating, Nutsedge (purple nutsedge; [5]): 0
Nutsedge plant response rating (purple nutsedge; [6]): 0
Nutsedge plant response rating (purple nutsedge; [7]): 0
Nutsedge plant response rating (purple nutsedge; [8]): 0
Cocklebur plant response rating (cocklebur; [1]): 0
Cocklebur plant response rating (cocklebur; [2]): 5
Plant response rating, Cocklebur (cocklebur; [3]): 0
Plant response rating, Cocklebur (cocklebur; [4]): 0
Plant response rating, Cocklebur (cocklebur; [5]): 0
Cocklebur plant response rating (cocklebur; [6]): 0
Cocklebur plant response rating (cocklebur; [7]): 0
Cocklebur plant response rating (cocklebur; [8]): 7
Velvetleaf plant response rating (velvetleaf; [1]): 0
Velvetleaf plant response rating (velvetleaf; [2]): 0
Plant response rating, Velvetleaf (velvetleaf; [3]): 0
Plant response rating, Velvetleaf (velvetleaf; [4]): 0
Plant response rating, Velvetleaf (velvetleaf; [5]): 0
Velvetleaf plant response rating (velvetleaf; [6]): 0
Velvetleaf plant response rating (velvetleaf; [7]): 0
Soybean plant response rating (soybean; [1]): 2
Soybean plant response rating (soybean; [2]): 2
Plant response rating, Soybean (soybean; [3]): 0
Plant response rating, Soybean (soybean; [4]): 0
Plant response rating, Soybean (soybean; [5]): 0
Soybean plant response rating (soybean; [6]): 0
Soybean plant response rating (soybean; [7]): 2
Sugarbeets plant response rating (sugar beet; [1]): 0
Sugarbeets plant response rating (sugar beet; [2]): 0
Plant response rating, Sugarbeets (sugar beet; [3]): 0
Plant response rating, Sugarbeets (sugar beet; [4]): 0
Plant response rating, Sugarbeets (sugar beet; [5]): 3
Sugarbeets plant response rating (sugar beet; [6]): 8
Sugarbeets plant response rating (sugar beet; [7]): 0
Morningglory plant response rating (morningglory; [1]): 2
Morningglory plant response rating (morningglory; [2]): 2
Plant response rating, Morningglory (morningglory; [3]): 0
Plant response rating, Morningglory (morningglory; [4]): 0
Plant response rating, Morningglory (morningglory; [5]): 2
Morningglory plant response rating (morningglory; [6]): 2
Morningglory plant response rating (morningglory; [7]): 2
Morningglory plant response rating (morningglory; [8]): 8
